Where two headings read alike, the source gives them in different places.
Target: T7 RNA polymerase (Escherichia phage T7, UniProt P00573)
Details: for Composition of nucleotide incorporated as 5′ neighbor of U: Ap / Composition of nucleotide incorporated as 5′ neighbor of U: Gp / Composition of nucleotide incorporated as 5′ neighbor of U: Np (Dsp) / Composition of nucleotide incorporated as 5′ neighbor of U: Up / Composition of nucleotide incorporated as 5′ neighbor of U: Cp: [α-32P]UTP; for Composition of nucleotide incorporated as 5′ neighbor of A: Up / Composition of nucleotide incorporated as 5′ neighbor of A: Np (Dsp) / Composition of nucleotide incorporated as 5′ neighbor of A: Ap / Composition of nucleotide incorporated as 5′ neighbor of A: Gp / Composition of nucleotide incorporated as 5′ neighbor of A: Cp: [α-32P]ATP; for Composition of nucleotide incorporated as 5′ neighbor of A: Cp: theoretical [7]
[1] = Entry 14, template temp35Pa-4, natural NTP 1 mM, Ds 1 mM, theoretical [0]
[2] = Entry 14, template temp35Pa-4, natural NTP 1 mM, Ds 1 mM, theoretical [1]
[3] = Entry 15, template temp35Pa-4, natural NTP 1 mM, Ds 3 mM, theoretical [0]
[4] = Entry 15, template temp35Pa-4, natural NTP 1 mM, Ds 3 mM, theoretical [1]
[5] = Entry 16, template temp35Pa′-4, natural NTP 1 mM, Ds 1 mM, theoretical [0]
[6] = Entry 16, template temp35Pa′-4, natural NTP 1 mM, Ds 1 mM, theoretical [1]
[7] = Entry 17, template temp35Pa′-4, natural NTP 1 mM, Ds 3 mM, theoretical [0]
[8] = Entry 17, template temp35Pa′-4, natural NTP 1 mM, Ds 3 mM, theoretical [1]
[9] = Entry 18, template temp35C-4, natural NTP 1 mM, Ds 1 mM, theoretical [0]
[10] = Entry 18, template temp35C-4, natural NTP 1 mM, Ds 1 mM, theoretical [1]
[11] = Entry 19, template temp35C-4, natural NTP 1 mM, Ds 3 mM, theoretical [0]
[12] = Entry 19, template temp35C-4, natural NTP 1 mM, Ds 3 mM, theoretical [1]
[13] = Entry 20, template temp35T-4, natural NTP 1 mM, Ds 1 mM, theoretical [0]
[14] = Entry 20, template temp35T-4, natural NTP 1 mM, Ds 1 mM, theoretical [1]
[15] = Entry 21, template temp35T-4, natural NTP 1 mM, Ds 3 mM, theoretical [0]
[16] = Entry 21, template temp35T-4, natural NTP 1 mM, Ds 3 mM, theoretical [1]
[17] = Entry 29, template DNA14, natural NTP 2 mM, Ds 2 mM, theoretical [6]
[18] = Entry 31, template DNAcont4, natural NTP 2 mM, Ds 2 mM, theoretical [6]
[19] = Entry 36, template DNA13, natural NTP 2 mM, Ds 2 mM, theoretical [4]
[20] = Entry 37, template DNA14, natural NTP 2 mM, Ds 2 mM, theoretical [4]
[21] = Entry 39, template DNAcont4, natural NTP 2 mM, Ds 2 mM, theoretical [4]

Sequence of T7 RNA polymerase (P00573 whole entry): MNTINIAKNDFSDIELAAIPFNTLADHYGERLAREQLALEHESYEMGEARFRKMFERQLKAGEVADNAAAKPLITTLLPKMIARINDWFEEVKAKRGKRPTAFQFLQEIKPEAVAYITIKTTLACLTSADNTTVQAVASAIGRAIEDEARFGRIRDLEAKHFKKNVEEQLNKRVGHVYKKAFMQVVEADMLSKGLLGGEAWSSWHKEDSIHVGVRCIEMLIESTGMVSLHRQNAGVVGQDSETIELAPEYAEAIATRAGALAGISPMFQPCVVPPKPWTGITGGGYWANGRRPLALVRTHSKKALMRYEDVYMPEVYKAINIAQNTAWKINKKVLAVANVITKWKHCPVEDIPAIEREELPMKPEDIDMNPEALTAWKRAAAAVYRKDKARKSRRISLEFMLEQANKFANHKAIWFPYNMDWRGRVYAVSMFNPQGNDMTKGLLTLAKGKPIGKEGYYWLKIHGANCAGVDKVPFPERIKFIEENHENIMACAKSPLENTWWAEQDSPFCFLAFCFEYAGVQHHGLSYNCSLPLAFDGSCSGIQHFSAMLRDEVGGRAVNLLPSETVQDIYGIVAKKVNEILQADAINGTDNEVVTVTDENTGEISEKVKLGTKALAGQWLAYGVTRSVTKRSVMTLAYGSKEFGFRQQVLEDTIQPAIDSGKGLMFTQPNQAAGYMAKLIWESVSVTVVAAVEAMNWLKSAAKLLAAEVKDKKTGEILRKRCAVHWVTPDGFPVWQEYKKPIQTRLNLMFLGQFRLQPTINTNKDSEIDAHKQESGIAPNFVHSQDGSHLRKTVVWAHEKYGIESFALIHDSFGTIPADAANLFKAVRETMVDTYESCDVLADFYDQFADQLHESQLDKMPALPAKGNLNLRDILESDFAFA
Protocol: Transcription (20 μl) was accomplished in 40 mM Tris-HCl buffer (pH 8.0) containing 24 mM MgCl2, 2 mM spermidine, 5 mM DTT, 0.01% Triton X-100, 1-3 mM each natural NTP, 0-3 mM Pa′TP, 0-3 mM DsTP, 10 mM GMP, 2 μM template DNA (for 17-mer transcript synthesis) or 0.5 μM template DNA (for tRNA transcript synthesis), and 2.5 units/μl T7 RNA polymerase (TAKARA). […] For nucleotide composition analysis in transcripts (Non-patent Documents 17 and 33), the transcripts were internally labeled with 2 μCi [α-^32P]UTP or [α-^32P]ATP (Amersham). After the transcription, the products were digested with 0.75 units of RNase T2 at 37° C. for 2 hours in 10 μl of 15 mM sodium acetate buffer (pH 4.5). For 17-mer analysis, 0.05 A260 units of E. coli tRNA (Sigma) was added to the digestion reaction solution. The digestion products were analyzed by 2D-TLC (HPTLC plate, 100×100 mm, Merck). The developing solvents used for the first and second dimensions were isobutyric acid-ammonia-water (66:1:33 v/v/v) and isopropyl alcohol-HCl-water (70:15:15 v/v/v or 75:15:10 v/v/v for Pa′ transcripts), respectively. Spots of the labeled nucleotides on the TLC plate were analyzed with a bio-imaging analyzer.
The internally ^32P-labeled transcripts were digested with Rnase T2, and the resulting labeled nucleoside 3′-monophosphates were analyzed by 2D thin-layer chromatography (2D-TLC).

Question: For `O=P(O)(O)OP(=O)(O)OP(=O)(O)OC[C@H]1O[C@@H](n2cnc3c(-c4cccs4)ccnc32)[C@H](O)[C@@H]1O` [DsTP, 7-(2-Thienyl)-3-(β-D-ribofuranosyl)-3H-imidazo[4,5-b]pyridine 5′-triphosphate], which “Composition of nucleotide incorporated as 5′ neighbor of U: Ap” value (shortened to “Composition … of U: Ap”) [1] is on record?
Answer: 0.02 [0]

Question: What about the “Composition of nucleotide incorporated as 5′ neighbor of U: Gp” value (“Composition … of U: Gp” below) [1] of the same compound?
Answer: n.d. [0]

Question: And the “Composition of nucleotide incorporated as 5′ neighbor of U: Np (Dsp)” value (from here on “Composition … of U: Np (Dsp)”) [2]?
Answer: 0.98 [1]

Question: And the “Composition of nucleotide incorporated as 5′ neighbor of U: Up” value (“Composition … of U: Up” for short) [2]?
Answer: 1.00 [1]

Question: What about the “Composition of nucleotide incorporated as 5′ neighbor of U: Cp” value (shortened to “Composition … of U: Cp”) (Entry 14, template temp35Pa-4, natural NTP 1 mM, Ds 1 mM, theoretical [2]) of the same compound?
Answer: 1.99 [2]

Question: What about the “Composition … of U: Ap” value [3] of the same compound?
Answer: 0.01 [0]

Question: And the “Composition … of U: Gp” value [3]?
Answer: n.d. [0]

Question: What about the “Composition … of U: Np (Dsp)” value [4] of the same compound?
Answer: 0.99 [1]

Question: And the “Composition … of U: Up” value [4]?
Answer: 1.01 [1]

Question: And the “Composition … of U: Cp” value (Entry 15, template temp35Pa-4, natural NTP 1 mM, Ds 3 mM, theoretical [2])?
Answer: 1.99 [2]

Question: What about the “Composition … of U: Ap” value [5] of the same compound?
Answer: 0.05 [0]

Question: And the “Composition … of U: Gp” value [5]?
Answer: n.d. [0]

Question: What about the “Composition … of U: Np (Dsp)” value [6] of the same compound?
Answer: 0.94 [1]

Question: What about the “Composition … of U: Up” value [6] of the same compound?
Answer: 1.02 [1]

Question: And the “Composition … of U: Cp” value (Entry 16, template temp35Pa′-4, natural NTP 1 mM, Ds 1 mM, theoretical [2])?
Answer: 1.98 [2]

Question: And the “Composition … of U: Ap” value [7]?
Answer: 0.02 [0]

Question: What about the “Composition … of U: Gp” value [7] of the same compound?
Answer: n.d. [0]

Question: And the “Composition … of U: Np (Dsp)” value [8]?
Answer: 0.96 [1]

Question: And the “Composition … of U: Up” value [8]?
Answer: 1.02 [1]

Question: And the “Composition … of U: Cp” value (Entry 17, template temp35Pa′-4, natural NTP 1 mM, Ds 3 mM, theoretical [2])?
Answer: 1.99 [2]

Question: And the “Composition … of U: Ap” value [9]?
Answer: 0.01 [0]

Question: And the “Composition … of U: Np (Dsp)” value [9]?
Answer: n.d. [0]

Question: What about the “Composition … of U: Gp” value [10] of the same compound?
Answer: 0.98 [1]

Question: What about the “Composition … of U: Up” value [10] of the same compound?
Answer: 1.00 [1]

Question: And the “Composition … of U: Cp” value (Entry 18, template temp35C-4, natural NTP 1 mM, Ds 1 mM, theoretical [2])?
Answer: 2.01 [2]

Question: What about the “Composition … of U: Ap” value [11] of the same compound?
Answer: 0.01 [0]

Question: What about the “Composition … of U: Np (Dsp)” value [11] of the same compound?
Answer: n.d. [0]

Question: What about the “Composition … of U: Gp” value [12] of the same compound?
Answer: 0.97 [1]

Question: What about the “Composition … of U: Up” value [12] of the same compound?
Answer: 1.00 [1]

Question: What about the “Composition … of U: Cp” value (Entry 19, template temp35C-4, natural NTP 1 mM, Ds 3 mM, theoretical [2]) of the same compound?
Answer: 2.03 [2]

Question: And the “Composition … of U: Gp” value [13]?
Answer: n.d. [0]

Question: What about the “Composition … of U: Np (Dsp)” value [13] of the same compound?
Answer: n.d. [0]

Question: And the “Composition … of U: Ap” value [14]?
Answer: 0.99 [1]

Question: What about the “Composition … of U: Up” value [14] of the same compound?
Answer: 1.02 [1]

Question: What about the “Composition … of U: Cp” value (Entry 20, template temp35T-4, natural NTP 1 mM, Ds 1 mM, theoretical [2]) of the same compound?
Answer: 1.99 [2]

Question: And the “Composition … of U: Gp” value [15]?
Answer: n.d. [0]

Question: What about the “Composition … of U: Np (Dsp)” value [15] of the same compound?
Answer: n.d. [0]

Question: What about the “Composition … of U: Ap” value [16] of the same compound?
Answer: 0.99 [1]

Question: What about the “Composition … of U: Up” value [16] of the same compound?
Answer: 1.01 [1]

Question: And the “Composition … of U: Cp” value (Entry 21, template temp35T-4, natural NTP 1 mM, Ds 3 mM, theoretical [2])?
Answer: 2.00 [2]

Question: What about the “Composition of nucleotide incorporated as 5′ neighbor of A: Up” value (“Composition … of A: Up” below) (Entry 28, template DNA13, natural NTP 2 mM, Ds 2 mM, theoretical [0]) of the same compound?
Answer: 0.05 [0]

Question: What about the “Composition of nucleotide incorporated as 5′ neighbor of A: Np (Dsp)” value (from here on “Composition … of A: Np (Dsp)”) (Entry 28, template DNA13, natural NTP 2 mM, Ds 2 mM, theoretical [1]) of the same compound?
Answer: 0.96 [1]

Question: What about the “Composition of nucleotide incorporated as 5′ neighbor of A: Ap” value (“Composition … of A: Ap” for short) (Entry 28, template DNA13, natural NTP 2 mM, Ds 2 mM, theoretical [5]) of the same compound?
Answer: 5.04 [5]

Question: And the “Composition of nucleotide incorporated as 5′ neighbor of A: Gp” value (shortened to “Composition … of A: Gp”) (Entry 28, template DNA13, natural NTP 2 mM, Ds 2 mM, theoretical [6])?
Answer: 6.02 [6]

Question: And the “Composition of nucleotide incorporated as 5′ neighbor of A: Cp” value (“Composition … of A: Cp” below) (Entry 28, template DNA13, natural NTP 2 mM, Ds 2 mM)?
Answer: 6.93 [7]

Question: And the “Composition … of A: Up” value (Entry 29, template DNA14, natural NTP 2 mM, Ds 2 mM, theoretical [0])?
Answer: 0.03 [0]

Question: What about the “Composition … of A: Np (Dsp)” value (Entry 29, template DNA14, natural NTP 2 mM, Ds 2 mM, theoretical [1]) of the same compound?
Answer: 0.96 [1]

Question: And the “Composition … of A: Ap” value [17]?
Answer: 6.13 [6]

Question: What about the “Composition … of A: Gp” value [17] of the same compound?
Answer: 5.96 [6]

Question: What about the “Composition … of A: Cp” value (Entry 29, template DNA14, natural NTP 2 mM, Ds 2 mM) of the same compound?
Answer: 6.93 [7]

Question: What about the “Composition … of A: Np (Dsp)” value (Entry 31, template DNAcont4, natural NTP 2 mM, Ds 2 mM, theoretical [0]) of the same compound?
Answer: 0.02 [0]

Question: What about the “Composition … of A: Up” value (Entry 31, template DNAcont4, natural NTP 2 mM, Ds 2 mM, theoretical [1]) of the same compound?
Answer: 1.09 [1]

Question: What about the “Composition … of A: Ap” value [18] of the same compound?
Answer: 6.10 [6]

Question: And the “Composition … of A: Gp” value [18]?
Answer: 5.98 [6]

Question: And the “Composition … of A: Cp” value (Entry 31, template DNAcont4, natural NTP 2 mM, Ds 2 mM)?
Answer: 6.83 [7]

Question: And the “Composition … of U: Np (Dsp)” value (Entry 36, template DNA13, natural NTP 2 mM, Ds 2 mM, theoretical [0])?
Answer: n.d. [0]

Question: And the “Composition … of U: Ap” value (Entry 36, template DNA13, natural NTP 2 mM, Ds 2 mM, theoretical [2])?
Answer: 2.00 [2]

Question: And the “Composition … of U: Gp” value [19]?
Answer: 3.97 [4]

Question: What about the “Composition … of U: Up” value [19] of the same compound?
Answer: 4.03 [4]

Question: And the “Composition … of U: Cp” value (Entry 36, template DNA13, natural NTP 2 mM, Ds 2 mM, theoretical [5])?
Answer: 4.99 [5]

Question: What about the “Composition … of U: Np (Dsp)” value (Entry 37, template DNA14, natural NTP 2 mM, Ds 2 mM, theoretical [0]) of the same compound?
Answer: 0.01 [0]

Question: And the “Composition … of U: Ap” value (Entry 37, template DNA14, natural NTP 2 mM, Ds 2 mM, theoretical [2])?
Answer: 1.99 [2]

Question: And the “Composition … of U: Cp” value [20]?
Answer: 4.02 [4]

Question: And the “Composition … of U: Gp” value [20]?
Answer: 3.91 [4]

Question: And the “Composition … of U: Up” value [20]?
Answer: 4.08 [4]

Question: What about the “Composition … of U: Np (Dsp)” value (Entry 39, template DNAcont4, natural NTP 2 mM, Ds 2 mM, theoretical [0]) of the same compound?
Answer: 0.01 [0]

Question: What about the “Composition … of U: Ap” value (Entry 39, template DNAcont4, natural NTP 2 mM, Ds 2 mM, theoretical [2]) of the same compound?
Answer: 1.99 [2]

Question: What about the “Composition … of U: Gp” value [21] of the same compound?
Answer: 3.95 [4]

Question: What about the “Composition … of U: Up” value [21] of the same compound?
Answer: 4.05 [4]

Question: What about the “Composition … of U: Cp” value (Entry 39, template DNAcont4, natural NTP 2 mM, Ds 2 mM, theoretical [5]) of the same compound?
Answer: 5.01 [5]

From US8030478B2, “Method for nucleic acid replication and novel artificial base pairs” (priority 2005, dated 2011)
